Key:
MOLT-4 cells = experiment: DNA cell cycle analysis by flow cytometry; format: cell-based, human; conditions: for Sub G1 population: 24 hrs
Experimental: Effect of “Compound-17” on DNA content by cell cycle phase distribution was assessed using human leukemia MOLT-4. The MOLT-4 cells (1×10^6 cells/ml) in RPMI-1640 medium were incubated with “Compound-17” (1, 10, 50 and 100 μM) for 24 hrs. The cells were then washed twice with ice-cold PBS, harvested, fixed with ice-cold PBS in 70% ethanol, and stored at −20° C. for 30 min. After fixation, the cells were incubated with RNase A (0.1 mg/ml) at 37° C. for 30 min, stained with propidium iodide (50 μg/ml) for 30 min on ice in dark, and then measured for DNA content using BD-LSR Flow cytometer (Becton Dickinson, USA) equipped with electronic doublet discrimination capability using blue (488 nm) excitation from argon laser. Data were collected in list mode on 10,000 events for FL2-A vs. FL2-W and analyzed (FIG. 3).^3d

[1] = test system: Ehrlich Ascites Tumor (EAT); experiment: Anti tumor activity on solid Ehrlich Ascites Tumor (EAT) bearing mice; format: in vivo; conditions: for % Tumor growth inhibition / Tumor Weight (mg) Mean ± SE: nine days, day 13
Source text: Non-inbred swiss albino mice from an in-house colony were used in the present study. The breeding and experimental animals were housed in standard size polycarbonate cages providing internationally recommended space for each animal. Animals were fed balanced mice feed supplied by MIs Ashirwad Industries, Chandigarh (India) and autoclaved water was available ad libitum. Animals were cared as per the guide for the care and use of laboratory animals (1996), ILAR, Washington D.C. They were housed in controlled conditions of temperature (23±2° C.), humidity (50-60%) and 12:12 hrs of light: dark cycle. The study and the number of animals used were approved by the institutional animal ethics committee, IIIM, Jammu, India. The study was conducted as per the protocols of National Cancer Institute (NCl), USA (Geran et al., 1972).
Parthenin and its derivative Compound-17 were evaluated against solid Ehrlich Ascites Tumor (EAT) models at different doses. A standard procedure for experiment was as followed:
Animals of the same sex weighing 20±3 g were injected 1×10^7 cells collected from the peritoneal cavity of non-inbred swiss mice, bearing 8-10 days old tumor cells, into the right thigh, intramuscularly (on Day 1). On next day animals were randomized and divided into test groups (7 animals in each test group) and one tumor control group (10 animals). Test groups were treated with different doses of Parthenin (10 mg/kg, 25 mg/kg and 50 mg/kg) and its derivative Compound-17 (10 mg/kg, 25 mg/kg and 50 mg/kg, 100 mg/kg and 200 mg/kg) suspension in 1% gum acacia in, their respective group intraperitonealy for nine consecutive days. Another test group was administered 5-FU @ 22 mg/kg i.p and served as positive control. The tumor contra group was similarly administered normal saline (0.2 ml i.p). The percent tumor growth-inhibition was measured on day 13 with respect to their tumor weight (Geran et al., 1972): Shortest and longest diameters of the tumor mass were measured with the help of vernier caliper and tumor weight (mg) was calculated by using following formula Tumor weight (mg)=Length (mm)×(Width (mm)^2/2 The average tumor weight for each group was calculated and the percent tumor growth inhibition in treated groups was calculated as follows: % Tumor Growth Inhibition=100×(Average tumor weight of control group−Average tumor weight of test group)/Average tumor weight of control group Anti Tumor Activity of Parthenin and its Derivative Compound-17 on Ehrlich Ascites Carcinoma (EAC)

C[C@H]1CC[C@@H]2[C@@H](OC(=O)C23CC(c2c4ccccc4cc4ccccc24)=NO3)[C@]2(C)C(=O)C=C[C@@]12O (some centres unmarked) [Compound -17]
Sub G1 population (MOLT-4 cells; 1 μM): 6.58%
Sub G1 population (MOLT-4 cells; 10 μM): 33.09%
Sub G1 population (MOLT-4 cells; 50 μM): 33.2%
blockage of G1 phase of cell cycle (MOLT-4 cells; 100 μM): complete blockage of G1 phase
Sub G1 population (MOLT-4 cells; 100 μM): 55%
% Tumor growth inhibition ([1]; 10 mg/kg i.p.): 9.44%
Tumor Weight (mg) Mean ± SE ([1]; 10 mg/kg i.p.): 1547.14 ± 36.63 mg
% Tumor growth inhibition ([1]; 25 mg/kg i.p.): 15.38%
Tumor Weight (mg) Mean ± SE ([1]; 25 mg/kg i.p.): 1445.71 ± 41.52 mg
% Tumor growth inhibition ([1]; 50 mg/kg i.p.): 22.03%
Tumor Weight (mg) Mean ± SE ([1]; 50 mg/kg i.p.): 1332.14 ± 32.59 mg
% Tumor growth inhibition ([1]; 100 mg/kg i.p.): 35.11%
Tumor Weight (mg) Mean ± SE ([1]; 100 mg/kg i.p.): 1108.57 ± 38.02 mg
mortality of test animals ([1]; 200 mg/kg i.p., EAT bearing mice): All animals died by 3rd day

From patent US8609858B2, “Spiro derivatives of parthenin as novel anticancer agents” (Council of Scientific & Industrial Research, priority 2008, dated 2013)
